Assays:
[1] = tested on: Plasmodium falciparum; assay: ST_JUDE: Plasmodium falciparum 3D7 EC50 (uM) as measured by SYBR green dye; type: functional, organism-based
[2] = tested on: Plasmodium falciparum; assay: ST_JUDE: Plasmodium falciparum K1 EC50 (uM) as measured by SYBR green dye; type: functional, organism-based

EC50 [1] [µM]	EC50 [2] [µM]	SMILES
> 15	> 15	CCc1c(C)nc(-n2nc(C)cc2NC(=O)c2ccc(C)c(C)c2)nc1O
3.42	8.22	COc1cccc(C2Nc3ccc(C(C)=O)cc3C3C=CCC32)c1OC (centres undefined)
> 15	> 15	Cc1ccc(C(=O)N2CCc3ccccc32)cc1Br
1.88	2.3	CCCC(=O)NC(c1ccc(Cl)cc1)c1ccc2cccnc2c1O (centres undefined)
> 15	> 15	COc1cc(Cl)c(NC(=O)c2cc3ccccc3cc2O)c(OC)c1
3.44	2.42	Cc1cccc2sc(N(Cc3cccnc3)C(=O)C3CCCCC3)nc12
1.53	1.86	COc1ccc(C(=O)NC(Nc2ccc(Cl)cc2)C(Cl)(Cl)Cl)cc1OC (centres undefined)
2	1.47	CCCCN(C)Cc1c(O)ccc2c(=O)c(Oc3ccccc3OCC)c(C(F)(F)F)oc12
> 15	> 15	CCCCC(=O)NC(c1cccs1)c1cc(Cl)c2cccnc2c1O (centres undefined)
> 15	5.33	O=S(=O)(NCC(c1cccnc1)N1CCN(c2ccccc2F)CC1)c1ccc(F)cc1 (centres undefined)
> 15	> 15	CCCOc1cc(S(=O)(=O)n2ccnc2)ccc1Cl
0.574	0.544	CCCCn1c(=N)n(CC(O)c2ccc(Cl)cc2)c2ccccc21 (centres undefined)
> 15	3.82	Cc1ccc2sc(NNC(=O)c3ccc(S(=O)(=O)N(C)C)cc3)nc2c1C
7.03	5.17	Cc1cccc(NC(c2ccccc2C)c2ccc3ccc(C)nc3c2O)n1 (centres undefined)
0.772	0.496	O=C(Nc1cc(Cl)cc(Cl)c1)Nc1ccc(Cl)c(Cl)c1
7.38	> 15	Cn1c(-c2ccccc2[N+](=O)[O-])[n+](C)c2ccccc21
0.754	3.6	Cc1ccc(Nc2nc(NCc3ccccc3)c3ccccc3n2)cc1
> 15	> 15	CCN(CC)CCCNc1nc(-c2ccc(Cl)cc2)nc2ccccc12
> 15	> 15	Cc1ccc(CN2CCN(C3CCCCC3)C(CCO)C2)cc1C (centres undefined)
2.39	> 15	COc1ccc(Nc2cc(C)nc(Nc3ccc(NS(=O)(=O)c4cccc(Cl)c4)cc3)n2)cc1
3.18	2.19	CCCCCCC(O)(c1ccc(F)cc1)C(CN1CCOCC1)c1ccccc1 (centres undefined)

EC50 [1] [µM]	EC50 [2] [µM]	SMILES
0.532	> 15	Cc1ccc(C2CC(c3cccs3)=NN2C(=O)c2ccc(Br)o2)cc1 (centres undefined)
1.03	1.5	CCN(CC)CCNC(=O)c1ccc2c(c1)sc1nc(-c3ccccc3)cn12
1.02	3.2	OCCNc1nc(Nc2ccc(Cl)cc2)nc2ccccc12
> 15	> 15	CC(C)(C)c1ccc(-c2nc(-c3ccncc3)no2)cc1
> 15	> 15	CCCCCC/N=C1\CC(C)(C)CC(O)=C1C(=O)CCCN1C(=O)c2ccccc2C1=O
1.64	0.631	O=[N+]([O-])c1ccc(NC(=S)Nc2cc(C(F)(F)F)cc(C(F)(F)F)c2)cc1
1.88	0.45	Oc1ccc(Br)cc1CN1CCN(Cc2ccccc2C(F)(F)F)CC1
0.57	3.44	CC(=O)Nc1ccc(S(=O)(=O)Nc2ccc(Nc3nc(C)cc(N4CCCC4)n3)cc2)cc1
> 15	> 15	CCCCN(CCCC)CC1OCc2ccccc2CO1
2.31	2.72	CCc1ccc(C(Nc2ccccn2)c2ccc3cccnc3c2O)cc1 (centres undefined)
4.8	> 15	CCC1(C)CC(CCN)(c2ccc(C)cc2)CCO1 (centres undefined)
> 15	> 15	CCCCN(CCCC)C(=O)Cn1ccc(=N)c2ccccc21
3.8	1.52	CCOc1cc(Br)c(C2C(C#N)=C(N)Oc3cc(O)ccc32)cc1OCC (centres undefined)
4.01	1.64	CCCCC(O)(c1ccc(Cl)cc1)C(CN1CCOCC1)c1ccc(Cl)cc1 (centres undefined)
0.96	1.6	COc1ccc(CCNC(=S)Nc2ccccc2Cl)cc1Br
1.61	0.558	CCc1ccc(Oc2c(C(F)(F)F)oc3c(CN4CCCCC4)c(O)ccc3c2=O)cc1
> 15	> 15	CCN(CC)CCCNC(=O)C1CCN(c2nc3c(C)cc(C)cc3s2)CC1
2.64	1.15	OC(CN1CCN(Cc2ccccc2)CC1)Cn1c2ccccc2c2ccccc21 (centres undefined)
5.43	6.85	CCCN1CCN(CCCNC(=S)Nc2ccc3nc(N4CCN(C)CC4)cc(C)c3c2)CC1
3.15	0.795	CCOc1cccc(CNC2CC(C)(C)Cc3c2cnn3-c2ccc(C)cc2)c1O (centres undefined)
3.65	3.81	COc1ccc(C2NCCc3c2[nH]c2ccccc32)cc1CN1CCN(c2ccc([N+](=O)[O-])cc2)CC1 (centres undefined)

EC50 [1] [µM]	EC50 [2] [µM]	SMILES
3.24	1.15	C=CCNc1c2c(nc3ccccc13)CCC2
> 15	> 15	CCCc1cc(O)nc(-n2nc(C)cc2NC(=O)c2cc(C)cc(C)c2)n1
4.77	> 15	CCN(CC)c1cc(C)c2cc(NC(=O)c3cccc(OC)c3)ccc2n1
1.42	> 15	CCc1ccc(S(=O)(=O)Nc2ccc(Nc3nc(C)cc(N4CCCC4)n3)cc2)cc1
0.352	0.155	CCOc1ccc(NC2=C/C(=N/S(=O)(=O)c3ccc(OC)cc3)c3ccccc3C2=O)cc1
> 15	> 15	O=C(NCc1ccccc1)C1CCC(Cn2c(=O)c3ccccc3n(Cc3cccc(F)c3)c2=O)CC1 (centres undefined)
> 15	> 15	COC(=O)c1c(S(=O)(=O)N2CCCCCC2)sc2c1CCN(Cc1ccc(F)c(OC)c1)C2
2.41	3.79	COc1ccc(OC)c(C2CC(=O)C3=C(C2)NC(=O)CC3c2ccc(OC)c(OC)c2)c1 (centres undefined)
3.23	0.678	CCOC(=O)c1ccc(NC2=C(n3nnc4ccccc43)C(=O)c3ccccc3C2=O)cc1
> 15	> 15	CCCCN(C)S(=O)(=O)c1ccc(C(=O)N(Cc2ccccn2)c2nc3ccccc3s2)cc1
1.14	1.89	CCN1CCN(CCCNC(=O)c2ccc3c(c2)sc2nc(-c4ccc(C)cc4)cn23)CC1
1.73	3.38	CCc1ccccc1NC(=O)C1c2ccccc2C(=O)N(C2CCCC2)C1c1cccs1 (centres undefined)
4.71	0.73	O=C1CC(c2ccc(F)cc2F)C2=C(CC(c3ccc(F)cc3)CC2=O)N1 (centres undefined)
> 15	> 15	CCCCc1ccc(OCC(=O)N/N=C/c2cccc(OC)c2)cc1
4.89	2.74	O=C1CC(c2ccc([N+](=O)[O-])cc2)C2=C(CC(c3cccs3)CC2=O)N1 (centres undefined)
5.66	2.91	Cc1n[nH]c(-c2ccc(OC(C)C)cc2O)c1Oc1ccccc1
> 15	> 15	CCCC(=O)NC(c1ccc(C(C)C)cc1)c1cc(Cl)c2cccnc2c1O (centres undefined)
4.03	3.44	CCOc1c(Br)cc(C2C(C(=O)OC)=CN(C(C)C)C=C2C(=O)OC)cc1OC
1.72	0.71	CN1CCN(Cc2c(O)ccc3c(=O)c(Oc4ccccc4Cl)c(C(F)(F)F)oc23)CC1
> 15	> 15	O=C(Nc1ccc(Cl)c(Cl)c1)Nc1ccc(Cl)c([N+](=O)[O-])c1
